Several values for one entry are separate records, joined by “and”; a condition that tells them apart may be missing. Equal entries are not always repeated. Toxic doses and inconclusive results are not listed.
Tested on: L1210 leukemia ip in BDF1 mice, survival T/C
Assay: NCI In Vivo Anticancer Drug Screen. Data for tumor model L1210 Leukemia (intraperitoneal) in B6D2F1 (BDF1) mice
Details: endpoint: mean survival time, higher = longer survival
Method in brief: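 Antitumor effect is assessed in tumor-bearing animals. Survival in the compound arm is compared with a vehicle-dosed control arm and expressed as their quotient.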

With CCN(CC)CCNc1ccc(C)c2sc3ccccc3c(=O)c12 the T/C (dose: 6.25 mg/kg/injection, schedule: Q01DX009 (ip), vehicle: saline) was 117 % of control and 118 % of control, the T/C (dose: 8.08 mg/kg/injection, schedule: Q01DX Z (ip), vehicle: carboxymethylcellulose (CMC)) was 96 % of control and the T/C (dose: 10.0 mg/kg/injection, schedule: Q01DX Z (ip), vehicle: other) was 95 % of control. For the same compound, the T/C (dose: 12.0 mg/kg/injection, schedule: Q01DX006 (iv), vehicle: saline) was 98 % of control, the T/C (dose: 12.0 mg/kg/injection, schedule: Q01DX Z (im), vehicle: saline) was 98 % of control and the T/C (dose: 12.0 mg/kg/injection, schedule: Q01DX Z (ip), vehicle: saline) was 101 % of control. The T/C (dose: 12.0 mg/kg/injection, schedule: Q01DX Z (sc), vehicle: saline) was 98 % of control, the T/C (dose: 12.5 mg/kg/injection, schedule: Q01DX005 (ip), vehicle: Klucel (hydroxypropylcellulose) (HPC)) was 96 % of control and 97 % of control and the T/C (dose: 12.5 mg/kg/injection, schedule: Q01DX005 (ip), vehicle: water) was 101 % of control. The T/C (dose: 13.0 mg/kg/injection, schedule: Q01DX Z (oral), vehicle: carboxymethylcellulose (CMC)) was 122 % of control, the T/C (dose: 16.17 mg/kg/injection, schedule: Q01DX Z (ip), vehicle: carboxymethylcellulose (CMC)) was 104 % of control and the T/C (dose: 18.0 mg/kg/injection, schedule: Q01DX Z (ip), vehicle: carboxymethylcellulose (CMC)) was 98 % of control. The T/C (dose: 18.0 mg/kg/injection, schedule: Q01DX Z (ip), vehicle: methylcellulose (MC)) was 107 % of control, the T/C (dose: 20.0 mg/kg/injection, schedule: Q01DX Z (ip), vehicle: carboxymethylcellulose (CMC)) was 100 % of control and 109 % of control and the T/C (dose: 20.0 mg/kg/injection, schedule: Q01DX Z (oral), vehicle: carboxymethylcellulose (CMC)) was 112 % of control. For the same compound, the T/C (dose: 24.0 mg/kg/injection, schedule: Q01DX Z (im), vehicle: saline) was 103 % of control, the T/C (dose: 24.0 mg/kg/injection, schedule: Q01DX Z (ip), vehicle: saline) was 101 % of control and the T/C (dose: 24.0 mg/kg/injection, schedule: Q01DX Z (sc), vehicle: saline) was 98 % of control. For the same compound, the T/C (dose: 25.0 mg/kg/injection, schedule: Q01DX005 (ip), vehicle: Klucel (hydroxypropylcellulose) (HPC)) was 103 % of control and 105 % of control, the T/C (dose: 25.0 mg/kg/injection, schedule: Q01DX005 (ip), vehicle: water) was 112 % of control and the T/C (dose: 25.0 mg/kg/injection, schedule: Q01DX010 (ip), vehicle: saline) was 103 % of control and 113 % of control. For the same compound, the T/C (dose: 25.0 mg/kg/injection, schedule: Q01DX Z (ip), vehicle: carboxymethylcellulose (CMC)) was 109 % of control, the T/C (dose: 25.0 mg/kg/injection, schedule: Q04DX003 (ip), vehicle: Klucel (hydroxypropylcellulose) (HPC)) was 104 % of control and 110 % of control and the T/C (dose: 25.0 mg/kg/injection, schedule: Q04DX003 (ip), vehicle: saline) was 100 % of control. For the same compound, the T/C (dose: 25.0 mg/kg/injection, schedule: Q04DX003 (ip), vehicle: water) was 101 % of control, the T/C (dose: 25.88 mg/kg/injection, schedule: Q01DX Z (ip), vehicle: carboxymethylcellulose (CMC)) was 98 % of control and the T/C (dose: 27.0 mg/kg/injection, schedule: Q01DX Z (ip), vehicle: carboxymethylcellulose (CMC)) was 108 % of control. The T/C (dose: 27.0 mg/kg/injection, schedule: Q01DX Z (ip), vehicle: methylcellulose (MC)) was 105 % of control, the T/C (dose: 30.0 mg/kg/injection, schedule: Q01DX Z (ip), vehicle: other) was 103 % of control and the T/C (dose: 32.35 mg/kg/injection, schedule: Q01DX Z (ip), vehicle: carboxymethylcellulose (CMC)) was 102 % of control and 103 % of control. The T/C (dose: 39.0 mg/kg/injection, schedule: Q01DX Z (ip), vehicle: methylcellulose (MC)) was 164 % of control, the T/C (dose: 40.0 mg/kg/injection, schedule: Q01DX Z (ip), vehicle: carboxymethylcellulose (CMC)) was 114 % of control and 122 % of control and 123 % of control and the T/C (dose: 40.0 mg/kg/injection, schedule: Q01DX Z (ip), vehicle: methylcellulose (MC)) was 100 % of control. For the same compound, the T/C (dose: 43.13 mg/kg/injection, schedule: Q01DX Z (ip), vehicle: carboxymethylcellulose (CMC)) was 113 % of control, the T/C (dose: 48.0 mg/kg/injection, schedule: Q01DX Z (im), vehicle: saline) was 108 % of control and the T/C (dose: 48.0 mg/kg/injection, schedule: Q01DX Z (sc), vehicle: saline) was 101 % of control. The T/C (dose: 50.0 mg/kg/injection, schedule: Q01DX005 (ip), vehicle: Klucel (hydroxypropylcellulose) (HPC)) was 114 % of control, the T/C (dose: 50.0 mg/kg/injection, schedule: Q01DX005 (ip), vehicle: water) was 121 % of control and the T/C (dose: 50.0 mg/kg/injection, schedule: Q01DX Z (ip), vehicle: carboxymethylcellulose (CMC)) was 121 % of control. For the same compound, the T/C (dose: 50.0 mg/kg/injection, schedule: Q04DX003 (ip), vehicle: Klucel (hydroxypropylcellulose) (HPC)) was 102 % of control and 119 % of control, the T/C (dose: 50.0 mg/kg/injection, schedule: Q04DX003 (ip), vehicle: saline) was 102 % of control and the T/C (dose: 50.0 mg/kg/injection, schedule: Q04DX003 (ip), vehicle: water) was 106 % of control. The T/C (dose: 58.0 mg/kg/injection, schedule: Q01DX Z (ip), vehicle: methylcellulose (MC)) was 222 % of control, the T/C (dose: 60.0 mg/kg/injection, schedule: Q01DX Z (ip), vehicle: methylcellulose (MC)) was 104 % of control and the T/C (dose: 75.0 mg/kg/injection, schedule: Q01DX001 (ip), vehicle: Klucel (hydroxypropylcellulose) (HPC)) was 117 % of control. For the same compound, the T/C (dose: 75.0 mg/kg/injection, schedule: Q01DX001 (ip), vehicle: saline) was 96 % of control and 101 % of control, the T/C (dose: 75.0 mg/kg/injection, schedule: Q01DX001 (ip), vehicle: water) was 108 % of control and the T/C (dose: 90.0 mg/kg/injection, schedule: Q01DX Z (ip), vehicle: methylcellulose (MC)) was 100 % of control. For the same compound, the T/C (dose: 96.0 mg/kg/injection, schedule: Q01DX Z (im), vehicle: carboxymethylcellulose (CMC)) was 111 % of control, the T/C (dose: 96.0 mg/kg/injection, schedule: Q01DX Z (im), vehicle: saline) was 120 % of control and the T/C (dose: 96.0 mg/kg/injection, schedule: Q01DX Z (ip), vehicle: carboxymethylcellulose (CMC)) was 111 % of control. The T/C (dose: 96.0 mg/kg/injection, schedule: Q01DX Z (ip), vehicle: saline) was 165 % of control, the T/C (dose: 96.0 mg/kg/injection, schedule: Q01DX Z (sc), vehicle: saline) was 115 % of control and the T/C (dose: 100.0 mg/kg/injection, schedule: Q01DX001 (ip), vehicle: saline) was 104 % of control. The T/C (dose: 100.0 mg/kg/injection, schedule: Q01DX005 (ip), vehicle: water) was 157 % of control, the T/C (dose: 100.0 mg/kg/injection, schedule: Q01DX010 (ip), vehicle: saline) was 151 % of control and 166 % of control and the T/C (dose: 100.0 mg/kg/injection, schedule: Q04DX003 (ip), vehicle: saline) was 93 % of control and 116 % of control. The T/C (dose: 129.4 mg/kg/injection, schedule: Q01DX Z (ip), vehicle: carboxymethylcellulose (CMC)) was 87 % of control, the T/C (dose: 140.0 mg/kg/injection, schedule: Q01DX Z (sc), vehicle: carboxymethylcellulose (CMC)) was 122 % of control and the T/C (dose: 145.0 mg/kg/injection, schedule: Q01DX001 (ip), vehicle: water) was 116 % of control. The T/C (dose: 150.0 mg/kg/injection, schedule: Q01DX001 (ip), vehicle: Klucel (hydroxypropylcellulose) (HPC)) was 107 % of control, the T/C (dose: 150.0 mg/kg/injection, schedule: Q01DX001 (ip), vehicle: saline) was 94 % of control and 104 % of control and the T/C (dose: 150.0 mg/kg/injection, schedule: Q01DX001 (ip), vehicle: water) was 120 % of control. The T/C (dose: 200.0 mg/kg/injection, schedule: Q01DX001 (ip), vehicle: saline) was 110 % of control, the T/C (dose: 200.0 mg/kg/injection, schedule: Q01DX009 (ip), vehicle: saline) was 105 % of control and 110 % of control and the T/C (dose: 200.0 mg/kg/injection, schedule: Q01DX010 (ip), vehicle: saline) was 93 % of control and 103 % of control. For the same compound, the T/C (dose: 200.0 mg/kg/injection, schedule: Q01DX Z (oral), vehicle: saline) was 104 % of control, the T/C (dose: 200.0 mg/kg/injection, schedule: Q04DX003 (ip), vehicle: Klucel (hydroxypropylcellulose) (HPC)) was 176 % of control and 180 % of control and the T/C (dose: 200.0 mg/kg/injection, schedule: Q04DX003 (ip), vehicle: saline) was 117 % of control. For the same compound, the T/C (dose: 215.0 mg/kg/injection, schedule: Q01DX Z (im), vehicle: carboxymethylcellulose (CMC)) was 122 % of control, the T/C (dose: 215.0 mg/kg/injection, schedule: Q01DX Z (sc), vehicle: carboxymethylcellulose (CMC)) was 111 % of control and the T/C (dose: 217.0 mg/kg/injection, schedule: Q01DX001 (ip), vehicle: water) was 121 % of control. For the same compound, the T/C (dose: 300.0 mg/kg/injection, schedule: Q01DX001 (ip), vehicle: saline) was 105 % of control, the T/C (dose: 300.0 mg/kg/injection, schedule: Q01DX001 (ip), vehicle: water) was 121 % of control and the T/C (dose: 320.0 mg/kg/injection, schedule: Q01DX Z (im), vehicle: carboxymethylcellulose (CMC)) was 100 % of control and 114 % of control. For the same compound, the T/C (dose: 320.0 mg/kg/injection, schedule: Q01DX Z (sc), vehicle: carboxymethylcellulose (CMC)) was 102 % of control, the T/C (dose: 400.0 mg/kg/injection, schedule: Q01DX001 (ip), vehicle: saline) was 188 % of control and the T/C (dose: 480.0 mg/kg/injection, schedule: Q01DX Z (im), vehicle: carboxymethylcellulose (CMC)) was 90 % of control.

Reference: PubChem BioAssay AID248 (DTP/NCI, 2004)
